Laboratory results published in ChEMBL document CHEMBL3351789, “Triazolopyridines as selective JAK1 inhibitors: from hit identification to GLPG0634” (J Med Chem, 2014).
Values after ≈ are worked out from the molar mass of the structure shown. Blank lines part the entries; values can stand above or below the compound they belong to.

What was measured:
[1] = target: T1, Tyrosine-protein kinase JAK1 (Homo sapiens, UniProt P23458); assay: Inhibition of JAK1 in human whole blood assessed as inhibition of IL-6-induced pSTAT1
T1 sequence (P23458 whole entry): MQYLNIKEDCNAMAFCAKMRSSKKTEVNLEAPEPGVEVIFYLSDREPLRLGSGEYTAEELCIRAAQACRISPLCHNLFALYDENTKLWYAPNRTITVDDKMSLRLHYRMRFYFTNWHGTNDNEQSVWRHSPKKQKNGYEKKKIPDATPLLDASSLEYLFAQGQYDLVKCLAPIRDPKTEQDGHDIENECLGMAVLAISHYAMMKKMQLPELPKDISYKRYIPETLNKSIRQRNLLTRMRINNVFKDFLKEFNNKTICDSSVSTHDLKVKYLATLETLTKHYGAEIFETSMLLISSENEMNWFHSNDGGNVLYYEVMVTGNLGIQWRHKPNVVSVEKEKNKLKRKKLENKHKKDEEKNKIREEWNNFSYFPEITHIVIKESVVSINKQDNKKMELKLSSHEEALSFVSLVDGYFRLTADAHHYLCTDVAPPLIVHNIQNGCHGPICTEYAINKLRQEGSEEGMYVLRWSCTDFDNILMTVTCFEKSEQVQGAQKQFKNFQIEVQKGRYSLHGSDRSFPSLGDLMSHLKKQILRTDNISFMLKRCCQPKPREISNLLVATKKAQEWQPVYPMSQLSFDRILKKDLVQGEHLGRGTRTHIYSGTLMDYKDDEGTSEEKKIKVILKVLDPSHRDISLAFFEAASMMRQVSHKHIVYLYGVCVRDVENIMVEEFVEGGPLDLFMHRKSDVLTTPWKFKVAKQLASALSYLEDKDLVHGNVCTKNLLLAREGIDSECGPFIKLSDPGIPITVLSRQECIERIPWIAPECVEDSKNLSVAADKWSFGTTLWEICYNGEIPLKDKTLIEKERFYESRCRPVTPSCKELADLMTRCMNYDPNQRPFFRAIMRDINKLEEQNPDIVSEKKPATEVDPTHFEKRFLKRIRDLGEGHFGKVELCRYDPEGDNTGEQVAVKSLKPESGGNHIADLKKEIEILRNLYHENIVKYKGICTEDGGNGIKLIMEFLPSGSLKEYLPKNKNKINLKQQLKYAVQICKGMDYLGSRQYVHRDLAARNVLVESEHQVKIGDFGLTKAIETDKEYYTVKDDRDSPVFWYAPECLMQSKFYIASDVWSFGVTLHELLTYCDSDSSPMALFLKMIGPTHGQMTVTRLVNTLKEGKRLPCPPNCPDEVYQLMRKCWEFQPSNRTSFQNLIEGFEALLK

[2] = target: T2, Tyrosine-protein kinase JAK2 (Homo sapiens, UniProt O60674); assay: Inhibition of JAK2 in human whole blood assessed as inhibition of GM-CSF-induced pSTAT5
T2 sequence (O60674 whole entry): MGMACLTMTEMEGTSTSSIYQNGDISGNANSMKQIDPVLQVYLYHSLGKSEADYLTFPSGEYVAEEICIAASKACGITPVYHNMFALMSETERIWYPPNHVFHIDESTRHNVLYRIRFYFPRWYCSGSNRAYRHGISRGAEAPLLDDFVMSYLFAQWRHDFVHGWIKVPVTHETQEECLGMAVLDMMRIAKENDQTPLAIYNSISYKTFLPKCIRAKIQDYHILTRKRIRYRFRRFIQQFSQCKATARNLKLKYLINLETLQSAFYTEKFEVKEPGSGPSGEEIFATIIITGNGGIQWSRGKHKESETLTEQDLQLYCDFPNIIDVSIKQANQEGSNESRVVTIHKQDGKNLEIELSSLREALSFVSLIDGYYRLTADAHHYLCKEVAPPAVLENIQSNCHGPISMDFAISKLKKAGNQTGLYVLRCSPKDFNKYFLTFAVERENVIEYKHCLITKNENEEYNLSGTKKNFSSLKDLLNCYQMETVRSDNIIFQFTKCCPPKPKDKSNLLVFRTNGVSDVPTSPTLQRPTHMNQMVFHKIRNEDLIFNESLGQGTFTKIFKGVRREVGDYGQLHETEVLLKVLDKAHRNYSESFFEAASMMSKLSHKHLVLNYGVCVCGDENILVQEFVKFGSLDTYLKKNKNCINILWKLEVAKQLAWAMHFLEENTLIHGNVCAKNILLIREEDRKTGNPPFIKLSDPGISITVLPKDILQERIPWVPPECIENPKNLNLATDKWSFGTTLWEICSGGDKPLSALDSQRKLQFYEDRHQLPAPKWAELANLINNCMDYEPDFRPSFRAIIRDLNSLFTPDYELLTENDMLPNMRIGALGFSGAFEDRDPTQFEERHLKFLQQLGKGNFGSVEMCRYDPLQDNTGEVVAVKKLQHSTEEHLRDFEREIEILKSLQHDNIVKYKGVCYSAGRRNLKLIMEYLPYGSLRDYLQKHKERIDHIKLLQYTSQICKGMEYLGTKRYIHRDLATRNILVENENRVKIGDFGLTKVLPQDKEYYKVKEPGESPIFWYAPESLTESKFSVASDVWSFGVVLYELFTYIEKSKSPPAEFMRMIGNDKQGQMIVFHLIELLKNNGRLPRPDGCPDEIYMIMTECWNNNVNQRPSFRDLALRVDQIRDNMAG

[3] = Kinetic solubility of the compound at pH 7.4; conditions: buffer
[4] = target: T1, Tyrosine-protein kinase JAK1; assay: Inhibition of human recombinant JAK1; conditions: read-out: IC50
[5] = species: Homo sapiens; assay: Selectivity index, ratio of IC50 for human recombinant JAK2 to IC50 for human recombinant JAK1
[6] = Plasma protein binding in rat
[7] = Tmax in rat at 5 mg/kg, po; assay type: ADME, organism-based; set-up: dose 5 mg/kg, route oral; conditions: in vivo
[8] = AUC (0 to infinity) in rat at 1 mg/kg, iv; assay type: ADME, organism-based; set-up: time infinity, dose 1 mg/kg, route intravenous; conditions: plasma
[9] = AUC (0 to infinity) in rat at 5 mg/kg, po; assay type: ADME, organism-based; set-up: time infinity, dose 5 mg/kg, route oral; conditions: plasma
[10] = Clearance in rat at 1 mg/kg, iv; assay type: ADME, organism-based; set-up: dose 1 mg/kg, route intravenous; conditions: in vivo
[11] = Half life in rat at 1 mg/kg, iv; assay type: ADME, organism-based; set-up: dose 1 mg/kg, route intravenous; conditions: in vivo
[12] = Half life in rat at 5 mg/kg, po; assay type: ADME, organism-based; set-up: dose 5 mg/kg, route oral; conditions: in vivo
[13] = Bioavailability in rat at 1 mg/kg, iv; assay type: ADME, organism-based; conditions: in vivo
[14] = Oral bioavailability in rat at 5 mg/kg; assay type: ADME, organism-based; conditions: in vivo
[15] = Metabolic stability in rat liver microsomes assessed as compound remaining after 60 mins; assay type: ADME; conditions: read-out: Stability
[16] = species: Homo sapiens; assay: Selectivity index, ratio of IC50 for human recombinant JAK3 to IC50 for human recombinant JAK1
[17] = species: Homo sapiens; assay: Selectivity index, ratio of IC50 for human recombinant TYK2 to IC50 for human recombinant JAK1
[18] = target: T2, Tyrosine-protein kinase JAK2; assay: Inhibition of human recombinant JAK2
[19] = target: Tyrosine-protein kinase JAK3 (Homo sapiens, UniProt P52333); assay: Inhibition of human recombinant JAK3
[20] = target: Non-receptor tyrosine-protein kinase TYK2 (Homo sapiens, UniProt P29597); assay: Inhibition of human recombinant TYK2
[21] = target: Fibroblast growth factor receptor 3 (Homo sapiens, UniProt P22607); assay: Inhibition of FGFR3 (unknown origin)
Fibroblast growth factor receptor 3, sequence (P22607 whole entry): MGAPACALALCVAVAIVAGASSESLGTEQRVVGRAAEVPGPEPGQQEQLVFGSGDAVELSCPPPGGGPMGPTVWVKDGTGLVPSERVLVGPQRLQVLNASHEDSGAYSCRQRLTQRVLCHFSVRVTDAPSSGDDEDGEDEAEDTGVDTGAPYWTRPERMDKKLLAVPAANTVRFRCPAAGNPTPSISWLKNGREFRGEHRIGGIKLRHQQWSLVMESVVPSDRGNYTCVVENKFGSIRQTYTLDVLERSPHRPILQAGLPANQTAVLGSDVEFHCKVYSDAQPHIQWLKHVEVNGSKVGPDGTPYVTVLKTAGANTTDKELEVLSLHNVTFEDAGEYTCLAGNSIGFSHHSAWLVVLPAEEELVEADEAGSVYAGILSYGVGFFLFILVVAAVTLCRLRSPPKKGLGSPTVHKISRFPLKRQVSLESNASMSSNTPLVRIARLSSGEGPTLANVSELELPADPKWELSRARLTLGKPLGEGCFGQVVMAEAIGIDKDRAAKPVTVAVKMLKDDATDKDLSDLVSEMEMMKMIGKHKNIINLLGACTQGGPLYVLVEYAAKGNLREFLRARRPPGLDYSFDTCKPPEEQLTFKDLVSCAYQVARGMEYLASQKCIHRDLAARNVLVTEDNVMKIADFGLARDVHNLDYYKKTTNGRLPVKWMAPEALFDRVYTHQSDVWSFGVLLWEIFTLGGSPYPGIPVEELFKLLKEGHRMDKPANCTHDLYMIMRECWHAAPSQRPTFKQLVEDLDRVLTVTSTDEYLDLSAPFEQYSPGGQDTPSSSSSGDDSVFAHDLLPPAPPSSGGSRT

[22] = target: Glycogen synthase kinase-3 beta (Homo sapiens, UniProt P49841); assay: Inhibition of GSK3beta (unknown origin)
[23] = target: Inhibitor of nuclear factor kappa-B kinase subunit beta (Homo sapiens, UniProt O14920); assay: Inhibition of IKKbeta (unknown origin)
Inhibitor of nuclear factor kappa-B kinase subunit beta, sequence (O14920 whole entry): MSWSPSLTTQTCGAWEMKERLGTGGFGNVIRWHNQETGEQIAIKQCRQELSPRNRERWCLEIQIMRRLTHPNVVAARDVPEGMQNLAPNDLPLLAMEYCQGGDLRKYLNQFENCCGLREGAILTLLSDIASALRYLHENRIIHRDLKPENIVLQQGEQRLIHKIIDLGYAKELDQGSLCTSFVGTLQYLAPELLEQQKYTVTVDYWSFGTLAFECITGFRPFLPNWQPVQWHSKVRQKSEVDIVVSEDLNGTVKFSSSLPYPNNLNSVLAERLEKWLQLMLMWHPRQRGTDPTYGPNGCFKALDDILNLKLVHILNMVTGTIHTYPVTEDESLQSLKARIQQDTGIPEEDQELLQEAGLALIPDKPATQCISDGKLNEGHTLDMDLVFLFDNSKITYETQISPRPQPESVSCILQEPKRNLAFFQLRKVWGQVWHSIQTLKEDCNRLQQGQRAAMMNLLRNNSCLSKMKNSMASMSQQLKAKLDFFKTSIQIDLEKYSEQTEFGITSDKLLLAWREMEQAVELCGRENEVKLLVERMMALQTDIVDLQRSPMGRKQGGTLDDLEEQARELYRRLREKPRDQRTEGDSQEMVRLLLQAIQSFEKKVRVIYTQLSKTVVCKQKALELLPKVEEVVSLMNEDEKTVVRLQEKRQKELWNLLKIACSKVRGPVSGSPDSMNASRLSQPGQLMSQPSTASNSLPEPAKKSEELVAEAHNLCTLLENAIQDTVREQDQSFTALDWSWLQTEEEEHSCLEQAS

[24] = target: Tyrosine-protein kinase Lck (Homo sapiens, UniProt P06239); assay: Inhibition of LCK (unknown origin)
[25] = target: MAP kinase-activated protein kinase 5 (Homo sapiens, UniProt Q8IW41); assay: Inhibition of MAPKAPK5 (unknown origin)
[26] = target: Mitogen-activated protein kinase 14 (Homo sapiens, UniProt Q16539); assay: Inhibition of p38alpha (unknown origin)
[27] = Inhibition of PKA (unknown origin); set-up: species or system Homo sapiens
[28] = target: Protein-tyrosine kinase 2-beta (Homo sapiens, UniProt Q14289); assay: Inhibition of PYK2 (unknown origin)
[29] = target: Receptor-interacting serine/threonine-protein kinase 2 (Homo sapiens, UniProt O43353); assay: Inhibition of RIPK2 (unknown origin)
Receptor-interacting serine/threonine-protein kinase 2, sequence (O43353 whole entry): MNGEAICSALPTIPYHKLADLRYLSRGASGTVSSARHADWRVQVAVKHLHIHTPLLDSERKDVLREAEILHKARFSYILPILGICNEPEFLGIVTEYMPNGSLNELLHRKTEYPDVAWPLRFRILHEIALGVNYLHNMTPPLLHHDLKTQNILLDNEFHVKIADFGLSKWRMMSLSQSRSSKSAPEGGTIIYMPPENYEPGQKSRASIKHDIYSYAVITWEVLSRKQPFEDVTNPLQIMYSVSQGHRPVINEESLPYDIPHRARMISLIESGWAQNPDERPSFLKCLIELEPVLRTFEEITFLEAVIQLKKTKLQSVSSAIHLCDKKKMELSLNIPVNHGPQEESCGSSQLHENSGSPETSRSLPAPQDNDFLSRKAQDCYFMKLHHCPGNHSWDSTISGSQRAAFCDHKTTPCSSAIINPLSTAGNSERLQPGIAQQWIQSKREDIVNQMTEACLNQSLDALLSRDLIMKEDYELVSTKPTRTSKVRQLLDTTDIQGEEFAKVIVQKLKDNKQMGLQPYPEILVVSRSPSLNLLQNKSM

[30] = target: Rho-associated protein kinase 1 (Homo sapiens, UniProt Q13464); assay: Inhibition of ROCK1 (unknown origin)
[31] = target: Tyrosine-protein kinase SYK (Homo sapiens, UniProt P43405); assay: Inhibition of SYK (unknown origin)
[32] = target: Mitogen-activated protein kinase kinase kinase 7 (Homo sapiens, UniProt O43318); assay: Inhibition of TAK1 (unknown origin)
Mitogen-activated protein kinase kinase kinase 7, sequence (O43318 whole entry): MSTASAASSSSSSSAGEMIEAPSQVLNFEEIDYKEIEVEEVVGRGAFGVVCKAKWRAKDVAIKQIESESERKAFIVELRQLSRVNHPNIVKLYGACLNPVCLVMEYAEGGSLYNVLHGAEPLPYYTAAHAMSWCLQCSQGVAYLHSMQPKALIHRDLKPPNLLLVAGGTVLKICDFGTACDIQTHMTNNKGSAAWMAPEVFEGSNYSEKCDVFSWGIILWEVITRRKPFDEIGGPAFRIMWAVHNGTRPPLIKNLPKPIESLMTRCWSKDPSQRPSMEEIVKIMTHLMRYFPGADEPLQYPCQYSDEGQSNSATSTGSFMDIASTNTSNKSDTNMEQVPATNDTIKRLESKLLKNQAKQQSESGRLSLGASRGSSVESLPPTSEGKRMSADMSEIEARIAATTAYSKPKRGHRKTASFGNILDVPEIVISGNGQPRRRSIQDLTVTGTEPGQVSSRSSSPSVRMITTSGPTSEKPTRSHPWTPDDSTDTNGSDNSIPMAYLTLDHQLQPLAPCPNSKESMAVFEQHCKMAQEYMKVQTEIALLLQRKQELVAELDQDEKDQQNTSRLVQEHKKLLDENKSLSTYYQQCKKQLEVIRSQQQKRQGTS

[33] = target: Serine/threonine-protein kinase TBK1 (Homo sapiens, UniProt Q9UHD2); assay: Inhibition of TBK1 (unknown origin)
[34] = target: Cyclin-dependent kinase 2 (Homo sapiens, UniProt P24941); assay: Inhibition of CDK2 (unknown origin)

IC50 [1]: 11.9 µM
IC50 [2]: > 100 µM
Compound: Nc1nc2cccc(-c3ccc(CN4CCS(=O)(=O)CC4)cc3)n2n1

solubility kinetic [3]: 28 µg/mL (≈ 67.6 µM)
IC50 [4]: 0.0083 µM
Ratio IC50 [5]: 1.7
Compound: O=C(Nc1nc2cccc(-c3ccc(Cc4ccc(O)c(CO)c4)cc3)n2n1)C1CC1

solubility kinetic [3]: > 38 µg/mL
fraction unbound [6]: 0.29
Tmax [7]: 19.8 min
AUC(0-inf) [8]: 470 ng·h/mL
AUC(0-inf) [9]: 1440 ng·h/mL
clearance [10]: 35.3 mL/min/kg
half-life [11]: 44.4 min
half-life [12]: 55.2 min
bioavailability [13]: 62%
bioavailability [14]: 45%
IC50 [2]: > 30 µM
remaining at 1 h [15]: 38%
Compound: O=C(Nc1nc2cccc(-c3ccc(CN4CCOCC4)cc3)n2n1)C1CC1

solubility kinetic [3]: > 85 µg/mL
IC50 [1]: 6.15 µM
IC50 [2]: > 30 µM
remaining at 1 h [15]: 85%
IC50 [4]: 0.041 µM
Ratio IC50 [5]: 2.1
Ratio IC50 [16]: 8
Ratio IC50 [17]: 9.6
Compound: O=C(Nc1nc2cccc(-c3ccc(CNC4CCS(=O)(=O)C4)cc3)n2n1)C1CC1 (configuration not stated)

IC50 [4]: 0.07 µM
IC50 [18]: 0.138 µM
IC50 [19]: 0.528 µM
IC50 [20]: 0.519 µM
IC50 [21]: > 5.74 µM
IC50 [22]: 7.11 µM
IC50 [23]: 24.7 µM
IC50 [24]: 4.44 µM
IC50 [25]: > 10 µM
IC50 [26]: > 10 µM
IC50 [27]: 40 µM
IC50 [28]: 3.18 µM
IC50 [29]: 51 µM
IC50 [30]: > 10 µM
IC50 [31]: 2.27 µM
IC50 [32]: > 10 µM
IC50 [33]: > 4 µM
IC50 [34]: > 10 µM
Ratio IC50 [5]: 2
Ratio IC50 [16]: 7.5
Ratio IC50 [17]: 7.4
Compound: COc1ccc(-c2cccc3nc(NC(=O)C4CC4)nn23)cc1

fraction unbound [6]: 0.1
Compound: O=C(Nc1nc2cccc(-c3ccc(NS(=O)(=O)C4CC4)cc3)n2n1)C1CC1
